From ChEMBL document CHEMBL3779818, “Design, synthesis and evaluation of a novel stacking nano-intercalator as an anti-tumor agent” (Medchemcomm, 2016) come the findings set out here.

Series [1] concerns Calf thymus DNA. Description: Induction of DNA intercalation of calf thymus DNA assessed as increase in absorption at 7.4 uM measured at 208 nm using 200 uM calf thymus DNA by UV spectrophotometry. Type of series: nucleic-acid assay. As to conditions: Bos taurus.
Series [2] concerns CCRF S-180. Description: Antitumor activity against mouse S180 cells xenografted in po dosed ICR mouse assessed as decrease in tumor growth administered daily for 14 days. Format: functional, organism-based.
Series [3] relates to Mus musculus. Description: Acute toxicity in ICR mouse xenografted with S180 cells assessed as brain weight at 100 umol/kg, po. Type of series: organism-based, CCRF S-180. As to conditions: in vivo.
Series [4] deals with Mus musculus. Put plainly: Acute toxicity in ICR mouse xenografted with S180 cells assessed as kidney weight at 100 umol/kg, po. Format: organism-based, CCRF S-180. The conditions noted are these: in vivo.
In series [5] the test system is CCRF S-180. Put plainly: Potency index, ratio of activity of Doxorubicin to test compound for antitumor activity against mouse S180 cells. Type of series: functional.
The test system of series [6] is Calf thymus DNA. Description: Induction of DNA intercalation of calf thymus DNA assessed as decrease in fluorescence intensity at 345 nm measured at 0.18 uM by fluorescence spectroscopy. As to conditions: Bos taurus. Type of series: nucleic-acid assay.
Series [7] deals with Spleen. Put plainly: Drug uptake in ICR mouse spleen xenografted with mouse S180 cells at 1 umol/kg/day, po after 7 days. Type of series: ADME, organism-based, CCRF S-180. The conditions noted are these: in vivo, 168 h.
The test system of series [8] is Mus musculus. Description: Acute toxicity in ICR mouse xenografted with S180 cells assessed as liver weight at 100 umol/kg, po. Type of series: organism-based, CCRF S-180. The conditions noted are these: in vivo.
For series [9], the system named is Calf thymus DNA. Description: Induction of DNA intercalation of calf thymus DNA assessed as decrease in absorption at 7.4 uM measured at 258 nm using 200 uM calf thymus DNA by UV spectrophotometry. Format: nucleic-acid assay. As to conditions: Bos taurus.
The subject of series [10] is Calf thymus DNA. Description: Induction of DNA intercalation of calf thymus DNA assessed as increase in absorption at 0.9 uM using 4 uM calf thymus DNA measured at 208 nm by UV spectrophotometry. The conditions noted are these: Bos taurus. Type of series: nucleic-acid assay.
The test system of series [11] is Calf thymus DNA. Put plainly: Induction of DNA intercalation of calf thymus DNA assessed as increase in fluorescence intensity at 345 nm using 80 uM calf thymus DNA by fluorescence spectroscopy. Format: nucleic-acid assay. As to conditions: Bos taurus.
Series [12] concerns Tumour. Description: Drug level in tumor in ICR mouse xenografted with S180 cells at 1 umol/kg/day, po after 7 days. As to conditions: in vivo, 168 h. Format: ADME, organism-based, Neoplasm, CCRF S-180.
Series [13] has as its system Heart. Put plainly: Drug uptake in ICR mouse heart xenografted with mouse S180 cells at 1 umol/kg/day, po after 7 days. Type of series: ADME, organism-based, CCRF S-180. The conditions noted are these: in vivo, 168 h.
For series [14], the system named is Kidney. Description: Drug uptake in ICR mouse kidney xenografted with mouse S180 cells at 1 umol/kg/day, po after 7 days. The conditions noted are these: in vivo, 168 h. Format: ADME, organism-based, CCRF S-180.
Series [15] deals with HeLa. Put plainly: Antiproliferative activity against human HeLa cells at 3.5 uM after 24 hrs by confocal microscopy. Type of series: functional, cell-based.
The test system of series [16] is CCRF S-180. Put plainly: Antiproliferative activity against mouse S180 cells assessed as cell viability after 48 hrs by MTT assay. Type of series: functional, cell-based. As to conditions: CCRF S-180, 48 h.
The subject of series [17] is Mus musculus. Put plainly: Acute toxicity in ICR mouse assessed as normal behavior at 100 umol/kg, po administered as single dose observed for 7 days. The conditions noted are these: in vivo, 168 h. Format: organism-based.
Series [18] deals with CCRF S-180. Put plainly: Antiproliferative activity against mouse S180 cells at 3.5 uM after 24 hrs by confocal microscopy. Type of series: functional, cell-based.
The subject of series [19] is Mus musculus. Put plainly: Acute toxicity in ICR mouse assessed as morphological changes in organs at 100 umol/kg, po administered as single dose observed for 7 days. Format: organism-based. The conditions noted are these: in vivo, 168 h.
Series [20] relates to Mus musculus. Put plainly: Cardiotoxicity in ICR mouse xenografted with mouse S180 cells. Format: toxicity, organism-based, CCRF S-180. As to conditions: in vivo.
Series [21] has as its system Lung. Put plainly: Drug uptake in ICR mouse lung xenografted with mouse S180 cells at 1 umol/kg/day, po after 7 days. The conditions noted are these: in vivo, 168 h. Type of series: ADME, organism-based, CCRF S-180.
Series [22] deals with HeLa. Description: Antiproliferative activity against human HeLa cells assessed as cell viability after 48 hrs by MTT assay. Type of series: functional, cell-based.
Series [23] relates to Liver. Put plainly: Drug uptake in ICR mouse liver xenografted with mouse S180 cells at 1 umol/kg/day, po after 7 days. Type of series: ADME, organism-based, CCRF S-180. The conditions noted are these: in vivo, 168 h.
In series [24] the test system is Blood. Put plainly: Drug uptake in ICR mouse blood xenografted with mouse S180 cells at 1 umol/kg/day, po after 7 days. Type of series: ADME, organism-based, CCRF S-180. The conditions noted are these: in vivo, 168 h.
For series [25], the system named is Mus musculus. Put plainly: Acute toxicity in ICR mouse assessed as change in serum ALT level at 100 umol/kg, po administered as single dose measured on 7th day. Format: organism-based. The conditions noted are these: in vivo.
For series [26], the system named is Mus musculus. Description: Acute toxicity in ICR mouse assessed as change in serum creatinine level at 100 umol/kg, po administered as single dose measured on 7th day. Format: organism-based. The conditions noted are these: in vivo.
Series [27] has as its system Mus musculus. Description: Acute toxicity in ICR mouse assessed as change in serum AST level at 100 umol/kg, po administered as single dose measured on 7th day. As to conditions: in vivo. Type of series: organism-based.
For series [28], the system named is Calf thymus DNA. Put plainly: Induction of DNA intercalation of calf thymus DNA assessed as increase in absorption at 0.9 uM using 4 uM calf thymus DNA measured at 258 nm by UV spectrophotometry. Format: nucleic-acid assay. The conditions noted are these: Bos taurus.
Series [29] relates to Mus musculus. Put plainly: Acute toxicity in ICR mouse xenografted with S180 cells assessed as heart weight at 100 umol/kg, po. Format: organism-based, CCRF S-180. The conditions noted are these: in vivo.
Series [30] deals with Brain. Put plainly: Drug uptake in ICR mouse brain xenografted with mouse S180 cells at 1 umol/kg/day, po after 7 days. Type of series: ADME, organism-based, CCRF S-180. The conditions noted are these: in vivo, 168 h.
Series [31] is described as follows: Retention time of compound by HPLC method. Format: physicochemical.
In series [32] the test system is Mus musculus. Put plainly: Acute toxicity in ICR mouse xenografted with S180 cells assessed as spleen weight at 100 umol/kg, po. Type of series: organism-based, CCRF S-180. The conditions noted are these: in vivo.

Calls of active or inactive are those of the source. The calls are words filed in the database; no cut-off is given here.

`O=C1[C@@H]2Cc3c([nH]c4ccccc34)CN2C(=O)[C@@H]2Cc3c([nH]c4ccccc34)CN12`: the result in series [1], in series [6], in series [9], in [10], in series [11] and in [15] was Active. The outcome in [18] and in [28] was Active. Further, the Activity result in series [2] is “Dose-dependent effect”; in [3] it was “Non-toxic”; in series [4] it was “Non-toxic”; in series [8], “Non-toxic”; in [17], “Non-toxic”; in series [19], “Non-toxic”. For the same compound, the Activity entry in [20], in [25], in series [26], in series [27], in series [29] and in [32] was “Non-toxic” each time. Moreover, the Ratio in series [5] worked out at 2. Also, the Drug uptake result in [7] is given as “Not Active”; in series [12] it was “Active”; in series [13] it was “Not Active”; in series [14], “Not Active”; in [21], “Not Active”; in [23] it was “Not Active”. Also, the Drug uptake result in series [24] and in series [30] was “Not Active” in each case. In addition, the IC50 amounted to 0.39 µM in series [16] and 3.5 µM in series [22]. For the same compound, in [31], the Retention_time amounted to 5.704 min.
On to `COc1cccc2c1C(=O)c1c(O)c3c(c(O)c1C2=O)C[C@@](O)(C(=O)CO)C[C@@H]3O[C@H]1C[C@H](N)[C@H](O)[C@H](C)O1` [DOXORUBICIN], for which, in series [20], the Activity entry is reported as “Toxic”.
